Values after ≈ are worked out from the molar mass of the structure shown.
Legend:
[1] = Dissolution in fasted-state simulated intestinal fluid (FaSSIF); format: physicochemical
Procedure: 10 mg of accurately weighted samples of Type A and Type F, and 50 mg of HPMCAS-20-SDD (ASD with 20% drug loading made via spray-drying dispersion, see Example 3) were each added to 20 mL of fasted-state simulated intestinal fluid (FaSSIF) solution (pH 6.5) in a 50-mL centrifuge tube. The tube was placed in a shaker and kept shaking with 100 rpm at 37° C. At different time intervals (10, 30, 60, 120, 240 min), 350 μL suspension was removed and centrifuged at 13,000 rpm for 3 minutes to give a clear solution that was then analyzed by HPLC.
Samples of HPMCAS-20-SDD, HPMCAS-40-SDD, HPMCAS-60-SDD, PVPVA-20-HME were tested for dissolution according to the protocols of Example 5.

[2] = format: physicochemical; settings: 24 h
[3] = Glass transition temperature by DSC; format: physicochemical; settings: DSC 0 to 180° C. at 10° C./min
Procedure: Accurately weighted samples (containing 5 mg of Compound I. see Table 3) were prepared according to the protocols of Examples 3 and 4, except varying the polymer and the drug amount. The examples were each placed in a DSC pan (TA Instruments), which was then sealed and placed in a TA Instruments Q2000. The pan was heated at 105° C. for 3 minutes and then rapidly cooled to 0° C. for 1 minute. The DSC analysis was carried out between 0 to 180° C. at a rate of 10° C./min.

[4] = Bioavailability of Type F crystalline form; settings: in vivo
Excerpt: Type F is a stable crystalline form and is useful as an active pharmaceutical ingredient (API) for a pharmaceutical formulation. However, its dissolution is slow and bioavailability is low (20%).

dissolution in FaSSIF (comparison) ([1]; FaSSIF pH 6.5, 37° C., 100 rpm, 10-240 min) | solubility [2] [µg/mL] | Tg [3] [°C] | bioavailability [4] [%] | dissolution ([1]; general statement on the crystalline form) | Compound
better than Type F's | 13 (≈ 30.4 µM) | 69.4 |  |  | C=CC(=O)N1CCC(c2ccc(C(N)=O)c(-c3ccc(Oc4ccccc4)cc3)n2)CC1 [Type A, 6-(1-acryloylpiperidin-4-yl)-2-(4-phenoxyphenyl)nicotinamide]
 | 4 (≈ 9.36 µM) |  | 20 | slow | C=CC(=O)N1CCC(c2ccc(C(N)=O)c(-c3ccc(Oc4ccccc4)cc3)n2)CC1 [Type F, 6-(1-acryloylpiperidin-4-yl)-2-(4-phenoxyphenyl)nicotinamide]

— US12178808B2, “Amorphous solid dispersion comprising 6-(1-acryloylpiperidin-4-yl)-2-(4-phenoxyphenyl)nicotinamide” (BEIJING INNOCARE PHARMA TECH CO., LTD., priority 2018, dated 2024)
